Among the data in PubChem BioAssay AID651677 (The Scripps Research Institute Molecular Screening Center, 2012) are IC50 values, retold here.

Molecules are shown by their SMILES. Active and inactive are the calls of the source. How the calls were made is not given here.

The target in the assay is Perilipin-5 (Homo sapiens) + 1-acylglycerol-3-phosphate O-acyltransferase ABHD5 (Homo sapiens) (UniProt Q00G26+Q8WTS1). The experiment in a line: ABHD5-PLIN5 interaction inhibitors, dose response, biochemical, luminescence (AID 651677).
Sequence of Perilipin-5 (Homo sapiens) + 1-acylglycerol-3-phosphate O-acyltransferase ABHD5 (Homo sapiens) (Q00G26 whole entry, looked up): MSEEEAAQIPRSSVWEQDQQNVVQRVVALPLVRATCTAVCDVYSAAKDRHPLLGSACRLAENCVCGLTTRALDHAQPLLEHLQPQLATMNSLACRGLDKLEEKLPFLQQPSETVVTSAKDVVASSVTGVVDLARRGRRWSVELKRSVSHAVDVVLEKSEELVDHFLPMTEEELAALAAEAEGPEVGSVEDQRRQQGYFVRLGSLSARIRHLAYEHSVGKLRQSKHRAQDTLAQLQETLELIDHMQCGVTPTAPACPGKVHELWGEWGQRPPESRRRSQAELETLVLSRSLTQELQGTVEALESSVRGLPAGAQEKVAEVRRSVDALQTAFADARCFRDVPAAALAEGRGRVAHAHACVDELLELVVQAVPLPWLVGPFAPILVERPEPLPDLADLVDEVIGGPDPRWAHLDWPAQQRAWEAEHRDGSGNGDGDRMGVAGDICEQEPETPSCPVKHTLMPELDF
Sequence of Perilipin-5 (Homo sapiens) + 1-acylglycerol-3-phosphate O-acyltransferase ABHD5 (Homo sapiens) (Q8WTS1 whole entry, looked up): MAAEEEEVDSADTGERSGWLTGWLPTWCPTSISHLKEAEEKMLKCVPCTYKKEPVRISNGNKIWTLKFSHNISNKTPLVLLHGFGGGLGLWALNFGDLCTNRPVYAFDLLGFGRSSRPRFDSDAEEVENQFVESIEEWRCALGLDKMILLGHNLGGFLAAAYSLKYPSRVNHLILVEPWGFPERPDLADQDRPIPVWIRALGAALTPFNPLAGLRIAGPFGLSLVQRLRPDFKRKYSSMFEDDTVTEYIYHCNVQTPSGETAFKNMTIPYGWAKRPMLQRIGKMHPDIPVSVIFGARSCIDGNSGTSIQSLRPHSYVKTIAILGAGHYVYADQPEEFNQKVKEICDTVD
For the compound `COc1ccc(C(C(=O)NCc2ccccc2)n2c(=O)c(-c3ccco3)nc3ccccc32)cc1` (stereo unspecified), the IC50 was 2220 nM. In the case of `C#CCN(C[C@@H]1[C@@H](OC(=O)NCCCCCC)[C@@H](OC(=O)NCCCCCC)Cn2c(=O)ccc(=O)n21)S(=O)(=O)c1ccc(C)cc1`, the IC50 is 4740 nM. Turning to `CCOC(=O)N1CCN(C(=O)C[C@@H]2C[C@@]3(C(=O)OCC)CCC=C3N(Cc3ccc(Cl)cc3Cl)C2=O)CC1`, the IC50 result is “inactive”.

Turning to `Cc1nnc(NC(=O)c2nc(S(=O)(=O)Cc3ccccc3C)ncc2Cl)s1`, the IC50 was 2710 nM. As for `COc1cc(C)c2sc3ccccc3c(=O)c2c1NCCN(C)C`, the figure is 3840 nM.

With `N#Cc1ccccc1OCc1cn(CC(=O)c2ccc(O)cc2)nn1`, the IC50 was 3680 nM. As for `Cc1ccc(C(=O)c2coc3c2C(=O)C(=O)c2ccccc2-3)cc1`, the figure is 2530 nM; as for `Cc1ccc(C(=O)/C=C/c2cc(Br)cc(Br)c2O)o1`, 5540 nM; as for `CC(=O)Cc1cc(O)c2ccccc2c1OC(=O)c1ccc(Br)cc1`, 2520 nM. As for `COCCNC(=O)/C(C#N)=C/c1cccc(/C=C(\C#N)C(=O)NCCOC)c1`, the figure is 727 nM; as for `CCCCCCC=C1CCC(CN2CCCC2)C1=O` (stereo unspecified), 1940 nM; as for `C=C[C@]1(C)C[C@@H](OC(=O)CSCCN(CC)CC)[C@]2(C)C(C)CC[C@]3(CCC(=O)[C@H]32)[C@@H](C)[C@@H]1O` (stereo partly specified), 8040 nM. In the case of `CCCCCNC(=O)C(c1ccc(C#N)cc1)n1c(=O)c(-c2ccco2)nc2ccccc21` (stereo unspecified), the IC50 was 3150 nM.

As to `C#CCN(C[C@@H]1[C@@H](OC(=O)NCc2ccc(OC)c(OC)c2)[C@@H](OC(=O)NCc2ccc(OC)c(OC)c2)Cn2c(=O)ccc(=O)n21)S(=O)(=O)c1ccc(C)cc1`, the IC50 was 5250 nM. Take `CC(=O)Oc1ccc(C23c4ccccc4C2(OC(C)=O)c2cc(OC(C)=O)ccc23)cc1` (stereo unspecified): the IC50 was 720 nM. The value for `CCSc1ccc2c(c1)N(CCCN1CCN(C)CC1)c1ccccc1S2` was 5860 nM; that for `O=C(/C=C/c1ccccc1)CC(O)(c1ccccc1)C(F)(F)C(F)F` (stereo unspecified) was 1140 nM.

For `Cc1cccc(C)c1NC(=O)C(c1ccccc1F)n1c(=O)c(-c2ccco2)nc2ccccc21` (stereo unspecified), the IC50 is 2730 nM. The value for `Cc1nc2c(o1)CCc1ccccc1C2N1CCN(C)CC1` (stereo unspecified) was 8830 nM; that for `CC1CN(Cc2c(O)ccc3c2oc(=O)c2ccccc23)CC(C)O1` (stereo unspecified) was 2120 nM.

Turning to `CC(c1nc2ccccc2[nH]1)n1c(=O)c(-c2ccco2)nc2ccccc21` (stereo unspecified), the IC50 is 2760 nM. The value for `c1ccc(CCC2=NCCn3cccc32)cc1` was “inactive”; that for `COc1cccc2sc(N(CCCN(C)C)C(=O)COc3ccc(Cl)cc3)nc12` was “inactive”. As for `Cc1ccc(O)c(C(=O)/C=C/c2ccc3c(c2)OCCCO3)c1`, the figure is 4130 nM; as for `O=C1NC(=O)N(Cc2ccccc2)C(=O)/C1=C\C=C\c1ccco1`, 1320 nM; as for `CCN(CC)CCOc1ccc(/C(=C(\Cl)c2ccccc2)c2ccccc2)cc1`, 2470 nM. The value for `O=C(NCc1ccccc1)C(c1cccc2ccccc12)n1c(=O)c(-c2ccco2)nc2ccccc21` (stereo unspecified) was 2220 nM; that for `Cc1ccc(O)c(C(=O)C=Cc2ccccc2)c1` was 3140 nM. On to `CCOC(=O)c1c(C)oc2c1c(CN1CCN(CCO)CC1)c(O)c1ccccc12`, for which the IC50 was 1810 nM. The value for `CN(C)CCN(Cc1ccco1)c1ccccn1` was 7750 nM; that for `CN(C)CCCNC(=O)c1ccc(-c2nc(-c3ccc(Cl)cc3)cs2)cc1` was “inactive”; that for `CSC(=Nc1ccccc1)N=C(SCc1ccccc1)N(C)C` was 1170 nM. For `Cc1ccc(SC2=C(Sc3ccc(C)cc3)C(=O)c3ccccc3C2=O)cc1`, the IC50 is 1000 nM.

Take `CN1CCC(=C2c3ccccc3CC(=O)c3sccc32)CC1`: the IC50 entry was “inactive”.

As to `O=C(/C(=C/O)N=Nc1ccc(Cl)cc1)c1ccncc1`, the IC50 was 8340 nM. As for `O=C(/C=C/Sc1ccccc1)c1ccc(Cl)cc1`, the figure is 3380 nM.
